Source: the NIST ThermoML archive (doi:10.1016/j.jct.2008.07.021)
Numbers after ± are expanded uncertainties.

How the values were obtained:
[1] = molar enthalpy of vaporization or sublimation; settings: 298.15 K; Crystal; Static calorimetry
[2] = Molar enthalpy of transition or fusion; settings: Crystal; DSC
[3] = Crystal; DTA

molar enthalpy [1] [kJ/mol] | Molar enthalpy of transition or fusion [2] [kJ/mol] | Triple point temperature [3] [K] | SMILES
105 ± 1.8 | 22.8 ± 0.76 | 351.27 ± 0.49 | COc1ccc2c(c1)CCCC2=O [3,4-dihydro-6-methoxy-1(2H)naphthalenone]
103 ± 1.8 | 23.2 ± 0.53 | 334.79 ± 0.39 | COc1ccc2c(c1)C(=O)CCC2 [7-methoxy-1-tetralone]
97.9 ± 0.9 | 22.1 ± 0.52 | 362.52 ± 0.39 | COc1cccc2c1CCCC2=O [3,4-dihydro-5-methoxy-1(2H)-naphthalenone]
